According to PMC6630837 (Pharmaceuticals, 2019):
Entries after “also recorded” stand apart in the source; their conditions may differ. Read-outs that look alike come from different tables or passages of the source.

Columns and labels:
[1] = test system: SH-SY5Y neuroblastoma cells; test: Cytotoxic activity of compounds alone, MTT cell viability assay; conditions: 24 h
Method: Neuroprotective assays in human neuroblastoma (SH-SY5Y) cells. SH-SY5Y cells were grown in Dulbecco’s Modified Eagle Medium (DMEM, Gibco, Life Technologies) supplemented with 10% fetal bovine serum (FBS, Biochrom GmbH) and 1% Penicillin-Streptomycin (Gibco, Life Technologies) in a humidified incubator at 37 °C, 5% CO2. For the neuroprotective activity assay, undifferentiated SGSY-5Y cells were plated onto 96-well flat-bottomed microtiter plates at a density of 1 × 10^4 cells/well in DMEM supplemented with 2% FBS and preincubated for 24 h at 37 °C, 5% CO2. Compounds (stored as 10 mM solutions in DMSO at −20 °C) were then added to achieve a final concentration of 50 μM and, after 30 min, cells were incubated in the presence or absence of 20 μM Aβ protein fragment 1-42 (Sigma-Aldrich, dissolved in DMSO and stored in 2 mM aliquots at −20 °C) or 100 μM of H2O2 (Sigma-Aldrich, dissolved to 10 mM in 0.9% NaCl aqueous solution immediately prior to the assay) overnight at 37 °C, 5% CO2. […] The following morning, 20 μL of a 5 mg/mL solution of 3-(4,5-dimethylthiazol-2-yl)-2,5-diphenyltetrazolium bromide (MTT, Sigma-Aldrich) in PBS (Gibco, Life Technologies) was added to each well and the plates were further incubated for 4 h at 37 °C, followed by the addition of DMSO (200 μL) to each well in order to dissolve the resulting formazan crystals. After 2 h incubating at 37 °C, the optical density (OD) at 540 nm (with a 620 nm reference filter) was measured in an Amersham Biosciences Biotrak II Plate Reader. The percentage of MTT reduction was determined according to Equation (1). […] Differences between experimental conditions were compared for statistical significance by one-way ANOVA followed by a Tukey’s post-test, an analysis carried out using GraphPad Prism Software (LA Jolla, CA, USA). Differences were considered significant when P < 0.05. In order to exclude direct MTT reduction, compounds were also tested in (a) the absence of cells and (b) in the absence of both cells and culture medium, using the same experimental conditions described above. (2) MTT Reduction (% of Control)=[ODsample−ODmedium/ODcell control−ODmedium] × 100 […]
Tabl e S2. Cytotoxic activity of each compound assessed in SH-SY5Y neuroblastoma cells via an MTT cell viability assay.a Comp ound Nr. MTT reduction (% control) p-va l u e vs . untreated cell control (unpai red t-t es t) […]
a Cells were incubated for 24 h at 37 °C, in the presence (50 μM) or absence of each compound.

[2] = target: T1, butyrylcholinesterase (BuChE) (Equus caballus, UniProt P81908); test: biochemical; conditions: for inhibition at 100 µM: read-out: BuChE inhibitory efficacy (percentage of inhibition)
T1 construct: (BuChE, equine serum); from tissue; host or cells: equine serum
Method: Experimental procedures for cholinesterase inhibition a s sa y s. For cholinesterase inhibition tests (acetylcholinesterase (AChE, electrophorus
el ec t r ic u s) a n d b ut yr ylcholinesterase (BuChE, equine serum), the Ellman’s cholorimetric assay1 was followed, with minor modifications. DMSO
was kept within 1.25% cuvette concentration. The chromogenic agent DTNB [5,5’-dithiobis(2-nitrobenzoic acid)] was fixed at 0.975 mM
con centration; 0. 1 M phosphate buffer (pH 8. 0) was employed, T = 25 °C, and the reaction was monitored for 125 s. […]
of inhibition, the substrate concentration (acetylthiocholine iodide for AChE; S- butyr ylthiocholine iodide for BuChE) was fixed at 29 µM for
AChE and at 18.2 µM concentration for BuChE.
Lineweaver-Burk plot (or double reciprocal plot, 1/V vs . 1/ [S ]) wa s u se d for estimating both, the mode of inhibition and the inhibition constants […]
Competitive inhibition (inhibitor only bonds the free enzyme):
KKiiii = [II ]KKMM iiaaaa
M i xe d inhibition (inhibitor binds both, the free and the complexed enzyme) :
Uncompetitive (the inhibitors only binds the complexed enzyme):
N on -competitive (inhibitor binds both the free enzyme and the complexed enzyme with equal affinity) :
Table S3. […]
of the synthesized flavone analogues at 100 µ M.
C omp ou n d N o. AChE B uChE

[3] = test system: SH-SY5Y human neuroblastoma cells; test: Neuroprotection against H2O2-induced toxicity, MTT cell viability assay; format: cell-based; conditions: 50 μM compound, 100 μM H2O2, 24 h, 37 °C
Source text: Neuroprotective activity assays against H2O2-induced toxicity. On the basis of previously described protocols, the flavones and analogues herein synthesized were screened for their neuroprotective effects against H2O2-induced oxidative stress and neuronal damage in SH-SY5Y human neuroblastoma cells by means of a thiazolyl blue tetrazolium bromide (MTT) reduction-based cell viability assay.
Neuroprotective assays in human neuroblastoma (SH-SY5Y) cells. […] Differences were considered significant when P < 0.05.

[4] = LogD7.4 determination (octan-1-ol/phosphate buffer, LC-MS); format: physicochemical; conditions: for Log D7.4 (partition coefficient at pH 7.4): octan-1-ol/phosphate buffer pH 7.4, 25 °C
Method: LogD7.4 determination. The in-silico prediction tool ALOGPS [4] was used to estimate the octanol-water partition coefficients (log P) of the compounds. […] For each category, two different ratios (volume of octan-1-ol to volume of buffer) were defined as experimental parameters (Table 2).
Equal amounts of phosphate buffer (0.1 M, pH 7.4) and octan-1-ol were mixed and shaken vigorously for 5 min to saturate the phases. The mixture was left until separation of the two phases, and the buffer was retrieved. Stock solutions of the test compounds were diluted with buffer to a concentration of 1 μM. For each compound, three determinations per octan-1-ol:buffer ratio were performed in different wells of a 96-well plate. The respective volumes of buffer-containing analyte (1 μM) were pipetted to the wells and covered by saturated octan-1-ol according to the chosen volume ratio. […] The aqueous phase was transferred to a 96-well plate for analysis by liquid chromatography-mass spectrometry (LCMS, see below).
Results are presented as the mean ± SD of three independent experiments.
LC-MS measurements. […] The system was controlled with the Agilent MassHunter Workstation Data Acquisition software (version B.01.04). The column used was an AtlantisR T3 C18 column (2.1 × 50 mm) with a 3 μm-particle size (Waters Corp., Milford, MA, USA). The mobile phase consisted of eluent A: 10 mM ammonium acetate, pH 5.0 in 95:5, H2O:MeCN; and eluent B: MeCN containing 0.1% formic acid. The flow rate was maintained at 0.6 mL/min. […] MS parameters such as fragmentor voltage, collision energy, and polarity were optimized individually for each drug, and the molecular ion was followed for each compound in the multiple reaction monitoring mode. The concentrations of the analytes were quantified by the Agilent Mass Hunter Quantitative Analysis software (version B.01.04).

[5] = target: acetylcholinesterase (AChE) (Electrophorus electricus, UniProt O42275); test: Acetylcholinesterase inhibition, Ellman's colorimetric assay; format: biochemical; conditions: 100 µM compound; for inhibition at 100 µM: read-out: AChE inhibitory efficacy (percentage of inhibition)
Method: For cholinesterase inhibition tests (acetylcholinesterase (AChE, electrophorus
was kept within 1.25% cuvette concentration.
AChE and at 18.2 µM concentration for BuChE. […]

[6] = 50 μM compound alone, 37 °C, 0.5% DMSO, SH-SY5Y
[7] = octan-1-ol/phosphate buffer, pH 7.4, octan-1-ol/phosphate buffer pH 7.4, 25 °C, read-out: Log D7.4 (partition coefficient at pH 7.4)

T1 sequence (P81908 whole entry): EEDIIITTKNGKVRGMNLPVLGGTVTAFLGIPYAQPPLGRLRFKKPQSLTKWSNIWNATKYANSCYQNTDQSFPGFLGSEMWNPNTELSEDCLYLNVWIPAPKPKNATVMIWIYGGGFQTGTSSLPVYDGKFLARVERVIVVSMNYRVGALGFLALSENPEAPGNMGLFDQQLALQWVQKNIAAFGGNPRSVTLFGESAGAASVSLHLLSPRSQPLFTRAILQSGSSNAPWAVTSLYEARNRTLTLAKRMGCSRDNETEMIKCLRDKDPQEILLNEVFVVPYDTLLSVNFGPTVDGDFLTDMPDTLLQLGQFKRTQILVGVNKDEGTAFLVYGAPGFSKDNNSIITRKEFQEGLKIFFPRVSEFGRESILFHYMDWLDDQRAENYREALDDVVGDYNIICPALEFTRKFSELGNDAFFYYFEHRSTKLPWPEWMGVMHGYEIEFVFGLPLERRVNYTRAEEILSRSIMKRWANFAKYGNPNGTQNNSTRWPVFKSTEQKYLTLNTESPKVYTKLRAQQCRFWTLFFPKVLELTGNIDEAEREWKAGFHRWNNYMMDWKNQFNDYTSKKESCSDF
Sequence of acetylcholinesterase (AChE) (O42275 24-633): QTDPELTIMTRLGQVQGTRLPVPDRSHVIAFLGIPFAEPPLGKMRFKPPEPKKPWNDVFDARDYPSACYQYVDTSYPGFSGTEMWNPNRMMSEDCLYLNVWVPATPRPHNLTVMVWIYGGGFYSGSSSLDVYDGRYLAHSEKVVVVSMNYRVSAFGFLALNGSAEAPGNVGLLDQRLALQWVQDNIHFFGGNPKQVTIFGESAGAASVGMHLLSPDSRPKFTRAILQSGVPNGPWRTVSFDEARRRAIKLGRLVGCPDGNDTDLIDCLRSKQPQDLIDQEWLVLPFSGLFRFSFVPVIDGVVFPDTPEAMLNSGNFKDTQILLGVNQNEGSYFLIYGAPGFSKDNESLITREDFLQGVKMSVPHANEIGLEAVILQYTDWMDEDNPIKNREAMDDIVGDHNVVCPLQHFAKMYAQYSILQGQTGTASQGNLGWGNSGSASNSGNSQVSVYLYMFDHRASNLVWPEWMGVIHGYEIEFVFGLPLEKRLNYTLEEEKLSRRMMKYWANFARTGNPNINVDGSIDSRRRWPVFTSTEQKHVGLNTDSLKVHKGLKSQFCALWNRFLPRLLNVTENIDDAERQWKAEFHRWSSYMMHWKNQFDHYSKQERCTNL

Molecule	MTT reduction (% control) [1, 6]	Neuroprotective effect against H2O2-induced toxicity (MTT cell viability) [3]	logD [4, 7]	other results
O=c1cc(-c2ccccc2)oc2c([C@@H]3O[C@H](CO)[C@@H](O)[C@H](O)[C@H]3O)c(O)cc(O)c12 [Compound 16, 8-(β-D-Glucopyranosyl)-5,7-dihydroxyflavone]	142.0 ± 38.5%	absence of significant effects	0.8 ± 0.3	BuChE inhibitory efficacy (percentage of inhibition) ([2]; 100 µM compound): n.i .; inhibition at 100 µM [5]: 20%
O=c1cc(C2CCC2)oc2cc(O)cc(O)c12 [Compound 5, 2-Cyclobutyl-5,7-dihydroxy-4H-chromen-4-one]	184.6 ± 30.2%	the increase was not significant	> 2.5	
O=c1cc(C2CC2)oc2cc(O)cc(O)c12 [Compound 4, 2-Cyclopropyl-5,7-dihydroxy-4H-chromen-4-one]	140.7 ± 12.0%	the increase was not significant	2.9 ± 0.1	inhibition at 100 µM [2]: 30%; inhibition at 100 µM [5]: 24%
CN(C)c1ccc(-c2cc(=O)c3c(O)cc(O)cc3o2)cc1 [Compound 10, 4′-Dimethylamino-5,7-dihydroxyflavone]	191.5 ± 22.9%	not significantly active	3.4 ± 0.2	
O=c1cc(-c2ccc(O)cc2)oc2c([C@@H]3O[C@H](CO)[C@@H](O)[C@H](O)[C@H]3O)c(O)cc(O)c12 [Compound 17, 8-(β-D-Glucopyranosyl)-5,7,4′-trihydroxyflavone]		able to rescue cells from oxidative damage caused by H2O2; also recorded: able to fully recover cell viability		MTT reduction (% control) ([1]; human, 50 μM): 85.0 ± 38.5%; logD ([4]; pH 7.4, Log D7.4 (partition coefficient at pH 7.4)): 0.1 ± 0.1
O=c1cc(-c2ccc(N3CCCC3)cc2)oc2cc(O)cc(O)c12 [Compound 9, 5,7-Dihydroxy-4′-(pyrrolidin-1-yl)flavone]	163.6% ± 72.6	able to produce statistically significant differences when compared to H2O2 controls		inhibition at 100 µM [2]: 32%; inhibition at 100 µM [5]: 27%
O=c1ccoc2c([C@@H]3O[C@H](CO)[C@@H](O)[C@H](O)[C@H]3O)c(O)cc(O)c12 [Compound 22, 8-(β-D-Glucopyranosyl)-5,7-dihydroxy-4H-chromen-4-one]	149.2 ± 21.6%	no significant differences	-2 ± 0.2	inhibition at 100 µM [2]: 19%; AChE inhibitory efficacy (percentage of inhibition) [5]: n.i .
O=c1cc(-c2ccco2)oc2cc(O)cc(O)c12 [Compound 11, 2-(Furan-2-yl)-5,7-dihydroxy-4H-chromen-4-one]	129.7 ± 9.06%	contrarily	> 2.5	
8-(β-D-Glucopyranosyl)-5,7-dihydroxy-4′-(pyrrolidin-1-yl)flavone [Compound 20]	219.9 ± 16.9%			Log D7.4 (partition coefficient at pH 7.4) [4]: 1.8 ± 0.2
O=c1ccoc2cc(O)cc(O)c12 [Compound 13, 5,7-dihydroxychromen-4-one, reference compound]	71.2 ± 48.1%	no significant differences	2.4 ± 0.1	
2-(Furan-2-yl)-8-(β-D-glucopyranosyl)-5,7-dihydroxy-4H-chromen-4-one [Compound 21]	131.5 ± 11.0%	able to rescue cells from oxidative damage caused by H2O2; also recorded: able to produce a significant improvement in cell viability		Log D7.4 (partition coefficient at pH 7.4) [4]: −0.2 ± 0.1
O=c1cc(-c2ccncc2)oc2cc(O)cc(O)c12 [Compound 12, 5,7-Dihydroxy-2-(pyridin-4-yl)-4H-chromen-4-one]	233.7 ± 15.7%	contrarily		
